Results published in paper PMC7343187, “Control of mRNA translation by dynamic ribosome modification” (PLoS Genetics, 2020).

Experiments:
RimK [1] = target: T1, RimK (Pseudomonas fluorescens, UniProt C3KE61); assay: PK/LDH-coupled ATPase assay (NADH oxidation); format: biochemical; conditions: 100 mM Tris-Cl pH 9.0, 20 mM MgSO4, 25 °C
T1 construct: His6-tagged, expressed in E. coli BL21(DE3) pLysS, Ni-NTA purified
T1 sequence (C3KE61 1-301): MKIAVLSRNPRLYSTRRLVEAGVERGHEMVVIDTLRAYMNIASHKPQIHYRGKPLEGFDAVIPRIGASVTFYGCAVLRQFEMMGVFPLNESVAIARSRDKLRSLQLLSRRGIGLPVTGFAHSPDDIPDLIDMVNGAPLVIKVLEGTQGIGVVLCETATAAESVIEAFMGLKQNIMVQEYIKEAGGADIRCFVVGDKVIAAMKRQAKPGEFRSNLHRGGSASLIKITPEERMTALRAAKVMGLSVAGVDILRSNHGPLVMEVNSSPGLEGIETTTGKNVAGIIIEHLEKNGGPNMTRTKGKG

RimK [2] = target: T1, RimK; assay: RpsF glutamation assay, SDS-PAGE and mass spectrometry; format: biochemical; conditions: acceptor RpsF10glu (SBW25); 20 mM ATP, 20 mM MgSO4, pH 9.0, room temperature
RimK [3] = target: T1, RimK; assay: PK/LDH-coupled ATPase assay; RpsF glutamation SDS-PAGE gel shift; format: biochemical; conditions: activator; ATPase with 25 uM cdG, 2.5 uM RimK, pH 9.0, 20 mM MgSO4, 25 °C
[4] = target: SBW25 RimK (Pseudomonas fluorescens SBW25) (UniProt C3KE61)

Molecule: Nc1ncnc2c1ncn2[C@@H]1O[C@H](COP(=O)(O)OP(=O)(O)OP(=O)(O)O)[C@@H](O)[C@H]1O [ATP]
- PK/LDH-coupled ATPase assay (NADH oxidation) (RimK [1]): plotting the specific activity of the enzyme (nmol ATP hydrolyzed/min/mg protein) versus ATP concentration

Molecule: N[C@@H](CCC(=O)O)C(=O)O [L-glutamate]
- RpsF glutamation assay, SDS-PAGE and mass spectrometry (RimK [2]): addition of RimK resulted in unregulated modification of RpsF10glu in a glutamate-dependent manner

Molecule: Nc1nc2c(ncn2[C@@H]2O[C@@H]3COP(=O)(O)O[C@H]4[C@@H](O)[C@H](n5cnc6c(=O)[nH]c(N)nc65)O[C@@H]4COP(=O)(O)O[C@H]3[C@H]2O)c(=O)[nH]1 [cdG, cyclic-di-GMP]
- PK/LDH-coupled ATPase assay; RpsF glutamation SDS-PAGE gel shift (RimK [3]): cdG was shown to stimulate both ATPase activity (Fig 2A) and RpsF modification (Fig 2B)

Molecule: SBW25 RimA (enzyme)
- Kd fitted to the RimK ATPase activity data of Fig 2E with the four-state kinetic model (RimK, RimK.RimA, RimK.cdG, RimK.cdG.RimA) [4]: 200 nM
- Kd fitted to the RimK ATPase activity data of Fig 2E with the two-state kinetic model (RimK, RimK*), which the paper calls unlikely [4]: 83.2 nM
